Assay results reported in the NIST ThermoML archive (doi:10.1007/s10765-006-0051-4).
± gives the expanded uncertainty stated by the source.

Experiment: xn = mol fraction of the nth substance listed
Conditions: Gas, Oscillating disk viscometry

FC(F)C(F)(F)F [pentafluoroethane] + CCC
Conditions	viscosity [mPa·s]
398.15 K, 5040.9 kPa, x1 = 0.7503	0.02051 ± 0.00063
398.15 K, 5179.6 kPa, x1 = 0.5011	0.01885 ± 0.00059
398.15 K, 5224.5 kPa, x1 = 0.7503	0.02087 ± 0.00064
398.15 K, 5374.2 kPa, x1 = 0.5011	0.01934 ± 0.0006
398.15 K, 5462.4 kPa, x1 = 0.7503	0.0215 ± 0.00065
398.15 K, 5801.5 kPa, x1 = 0.7503	0.0224 ± 0.00068
423.15 K, 101.3 kPa, x1 = 0.5011	0.01525 ± 0.00051
423.15 K, 102.4 kPa, x1 = 0.7503	0.01671 ± 0.00054
423.15 K, 194.6 kPa, x1 = 0.7503	0.01672 ± 0.00054
423.15 K, 200.5 kPa, x1 = 0.5011	0.01531 ± 0.00051
423.15 K, 336.4 kPa, x1 = 0.7503	0.01676 ± 0.00054
423.15 K, 390.6 kPa, x1 = 0.5011	0.01537 ± 0.00051
423.15 K, 570.1 kPa, x1 = 0.7503	0.01682 ± 0.00055
423.15 K, 586.2 kPa, x1 = 0.5011	0.01537 ± 0.00051
423.15 K, 781.9 kPa, x1 = 0.5011	0.01543 ± 0.00051
423.15 K, 812.9 kPa, x1 = 0.7503	0.01692 ± 0.00055
423.15 K, 960.2 kPa, x1 = 0.5011	0.01542 ± 0.00051
423.15 K, 1055.8 kPa, x1 = 0.7503	0.01696 ± 0.00055
423.15 K, 1175.7 kPa, x1 = 0.5011	0.01552 ± 0.00052
423.15 K, 1254.9 kPa, x1 = 0.7503	0.01706 ± 0.00055
423.15 K, 1421.7 kPa, x1 = 0.5011	0.01565 ± 0.00052
423.15 K, 1448.9 kPa, x1 = 0.7503	0.01715 ± 0.00055
423.15 K, 1640 kPa, x1 = 0.7503	0.01724 ± 0.00056
423.15 K, 1658.8 kPa, x1 = 0.5011	0.01573 ± 0.00052
423.15 K, 1898.5 kPa, x1 = 0.5011	0.01584 ± 0.00052
423.15 K, 1906.4 kPa, x1 = 0.7503	0.0174 ± 0.00056
423.15 K, 2128.2 kPa, x1 = 0.7503	0.01752 ± 0.00056
423.15 K, 2142.2 kPa, x1 = 0.5011	0.01598 ± 0.00053
423.15 K, 2375.9 kPa, x1 = 0.7503	0.01766 ± 0.00056
423.15 K, 2381.7 kPa, x1 = 0.5011	0.01613 ± 0.00053
423.15 K, 2575.8 kPa, x1 = 0.5011	0.01623 ± 0.00053
423.15 K, 2591.5 kPa, x1 = 0.7503	0.01781 ± 0.00057
423.15 K, 2903.1 kPa, x1 = 0.5011	0.01643 ± 0.00054
423.15 K, 2919.3 kPa, x1 = 0.7503	0.01808 ± 0.00057
423.15 K, 3148.8 kPa, x1 = 0.5011	0.01663 ± 0.00054
423.15 K, 3160.1 kPa, x1 = 0.7503	0.01824 ± 0.00058
423.15 K, 3289.3 kPa, x1 = 0.7503	0.01836 ± 0.00058
423.15 K, 3412.8 kPa, x1 = 0.5011	0.01685 ± 0.00055
423.15 K, 3552.1 kPa, x1 = 0.7503	0.01859 ± 0.00059
423.15 K, 3651.4 kPa, x1 = 0.5011	0.01705 ± 0.00055
423.15 K, 3813.6 kPa, x1 = 0.7503	0.01886 ± 0.00059
423.15 K, 3903.9 kPa, x1 = 0.5011	0.01729 ± 0.00056
423.15 K, 4061.5 kPa, x1 = 0.7503	0.01916 ± 0.0006
423.15 K, 4138.6 kPa, x1 = 0.5011	0.01756 ± 0.00056
423.15 K, 4298.5 kPa, x1 = 0.7503	0.01944 ± 0.00061
423.15 K, 4492.6 kPa, x1 = 0.7503	0.01962 ± 0.00061
423.15 K, 4533.7 kPa, x1 = 0.5011	0.01792 ± 0.00057
423.15 K, 4689.8 kPa, x1 = 0.7503	0.01988 ± 0.00062
423.15 K, 4822.7 kPa, x1 = 0.5011	0.01823 ± 0.00058
423.15 K, 4902.5 kPa, x1 = 0.7503	0.02023 ± 0.00063
423.15 K, 5070 kPa, x1 = 0.7503	0.02042 ± 0.00063
423.15 K, 5073.7 kPa, x1 = 0.5011	0.01858 ± 0.00059
423.15 K, 5285.8 kPa, x1 = 0.7503	0.02077 ± 0.00064
423.15 K, 5357.3 kPa, x1 = 0.5011	0.01897 ± 0.0006
423.15 K, 5493.3 kPa, x1 = 0.7503	0.02108 ± 0.00064
423.15 K, 5672.2 kPa, x1 = 0.7503	0.02139 ± 0.00065
423.15 K, 5701.1 kPa, x1 = 0.5011	0.01947 ± 0.00061
423.15 K, 5887.3 kPa, x1 = 0.7503	0.02175 ± 0.00066
423.15 K, 6049.1 kPa, x1 = 0.5011	0.02 ± 0.00062
423.15 K, 6270.6 kPa, x1 = 0.5011	0.02038 ± 0.00063
423.15 K, 6494.5 kPa, x1 = 0.5011	0.0208 ± 0.00064
423.15 K, 6710.2 kPa, x1 = 0.5011	0.02129 ± 0.00065
